Test system: EpidermFT™ Skin Model (EFT-400) full thickness skin cultures
Experiment: Affymetrix GeneChip HG U133 Plus 2.0 microarray global gene expression, agent-exposed vs untreated skin cultures
Type: cell-based, human
Conditions: Salicin 0.5% vs Untreated Control, 24 hr treatment

OCc1ccccc1O[C@@H]1O[C@H](CO)[C@@H](O)[C@H](O)[C@H]1O [Salicin, 2-(Hydroxymethyl)phenyl β-D-glucospyranoside]
Direction UGCGL2 (218801_at): up
Direction UST (205139_s_at): up
Direction WIPI1 (203827_at): up
Direction XPO1 (235927_at): up
Direction ZFAND5 (217649_at): up
Direction ZFP36L1 (211965_at): up
Direction ZNF281 (228785_at): up
Direction ZNF331 (219228_at): up
Direction ZNF697 (227080_at): up
Fold change ABHD2 (205566_at): 2.508
Fold change ABHD2 (221815_at): 2.348
Fold change ABHD2 (225337_at): 2.704
Fold change ADAMTS5 (235368_at): 2.751
Fold change ADAMTS6 (1570351_at): 2.37
Fold change ADCYAP1 (230237_at): 2.573
Fold change AHI1 (220841_s_at): 2.322
Fold change AHI1 (221569_at): 2.667
Fold change AKR1C1 (1562102_at): 2.331
Fold change AKT3 (212607_at): 2.622
Fold change AKT3 (212609_s_at): 2.3
Fold change AKT3 (222880_at): 2.365
Fold change AKT3 (224229_s_at): 2.751
Fold change ALG9 (228817_at): 2.321
Fold change ANKRD28 (213035_at): 2.361
Fold change ANKRD28 (229307_at): 2.421
Fold change ARMC8 (1555281_x_at): 2.299
Fold change ARNT2 (202986_at): 2.361
Fold change ATF3 (1554980_a_at): 2.623
Fold change ATP2A3 (207522_s_at): 2.434
Fold change BAG2 (209406_at): 2.774
Fold change BCL2L11 (1558143_a_at): 2.347
Fold change BNC2 (220272_at): 2.471
Fold change BNC2 (235723_at): 2.707
Fold change C1GALT1C1 (238989_at): 2.327
Fold change C1orf67 /// DNAH14 (242283_at): 2.614
Fold change C13orf33 (227058_at): 2.621
Fold change CABLES1 (225532_at): 2.633
Fold change CARD16 (1552701_a_at): 2.363
Fold change CCR1 (205098_at): 2.474
Fold change CDCP1 (1554110_at): 2.44
Fold change CDR2 (209501_at): 2.488
Fold change CHST2 (203921_at): 2.332
Fold change CLGN (205830_at): 2.486
Fold change CNOT3 (203239_s_at): 2.466
Fold change CPM (241765_at): 2.574
Fold change CPM (243403_x_at): 2.436
Fold change CREM (207630_s_at): 2.309
Fold change CUL4B (202213_s_at): 2.538
Fold change CXCL1 (204470_at): 2.363
Fold change CYP7B1 (207386_at): 2.782
Fold change CYR61 (210764_s_at): 2.692
Fold change DENND3 (212975_at): 2.471
Fold change DENND5B (228551_at): 2.474
Fold change DGKI (206806_at): 2.74
Fold change DNAJB9 (202842_s_at): 2.613
Fold change DNAJB9 (1554462_a_at): 2.666
Fold change DNAJC10 (221781_s_at): 2.508
Fold change DNAJC10 (221782_at): 2.553
Fold change DOCK4 (205003_at): 2.383
Fold change DOCK5 (230206_at): 2.653
Fold change DOCK5 (230263_s_at): 2.362
Fold change DOK6 (236290_at): 2.316
Fold change DSEL (232825_s_at): 2.821
Fold change DUSP4 (204015_s_at): 2.668
Fold change DZIP1 (204557_s_at): 2.653
Fold change EIF2AK3 (218696_at): 2.305
Fold change ELL2 (214446_at): 2.557
Fold change ELTD1 (219134_at): 2.637
Fold change ENPP1 (205066_s_at): 2.414
Fold change ENTPD7 (220153_at): 2.395
Fold change EPS8 (202609_at): 2.334
Fold change EREG (205767_at): 2.487
Fold change ERO1LB (220012_at): 2.376
Fold change FADS1 (208963_x_at): 2.411
Fold change FADS1 (208964_s_at): 2.638
Fold change FAM20A (226804_at): 2.437
Fold change FAM107B (223058_at): 2.544
Fold change FAM107B (223059_s_at): 2.476
Fold change FAR2 (220615_s_at): 2.497
Fold change FAT4 (219427_at): 2.428
Fold change FEM1B (212374_at): 2.726
Fold change FGF7 (1555103_s_at): 2.35
Fold change FGF7 /// KGFLP1 /// KGFLP2 (1554741_s_at): 2.506
Fold change FHOD3 (218980_at): 2.607
Fold change FKBP11 (219117_s_at): 2.431
Fold change FKBP11 (219118_at): 2.422
Fold change FMN2 (1555471_a_at): 2.355
Fold change FN1 (214701_s_at): 2.436
Fold change FN1 (214702_at): 2.71
Fold change FOXJ3 (217310_s_at): 2.327
Fold change FPR1 (205119_s_at): 2.402
Fold change GAS1 (204457_s_at): 2.783
Fold change GCLM (203925_at): 2.646
Fold change GCLM (236140_at): 2.667
Fold change GEM (204472_at): 2.52
Fold change GFPT1 (226886_at): 2.512
Fold change GFPT2 (205100_at): 2.3
Fold change GLIPR1 (204222_s_at): 2.366
Fold change GRAMD1A (224807_at): 2.363
Fold change GRAMD1B (212906_at): 2.401
Fold change GUCY1A3 (221942_s_at): 2.594
Fold change GUCY1A3 (229530_at): 2.498
Fold change HERC3 (1554290_at): 2.372
Fold change HEY1 (44783_s_at): 2.372
Fold change HIST1H2AB /// HIST1H2AE (214469_at): 2.52
Fold change HIST1H2AD /// HIST1H3A /// HIST1H3B /// HIST1H3C /// HIST1H3D /// HIST1H3E /// HIST1H3F /// HIST1H3G /// HIST1H3H /// HIST1H3I /// HIST1H3J (214472_at): 2.608
Fold change HIST2H2AA3 /// HIST2H2AA4 (214290_s_at): 2.42
Fold change HK2 (222305_at): 2.329
Fold change HOXB2 (205453_at): 2.404
Fold change HSD17B2 (204818_at): 2.766
Fold change HSPA13 (202557_at): 2.665
Fold change ID2 /// ID2B (213931_at): 2.802
Fold change IGFBP5 (211958_at): 2.712
Fold change ING1 (209808_x_at): 2.572
Fold change IRAK2 (231779_at): 2.734
Fold change IRAK3 (220034_at): 2.411
Fold change ITPRIP (225582_at): 2.421
Fold change JHDM1D (225142_at): 2.825
Fold change KCNA3 (207237_at): 2.308
Fold change KCNE4 (222379_at): 2.686
Fold change KCNE4 (1552508_at): 2.802
Fold change KCNJ8 (205303_at): 2.493
Fold change KCNJ8 (205304_s_at): 2.387
Fold change KLF15 (231015_at): 2.338
Fold change KLHL29 (229310_at): 2.719
Fold change LCP1 (208885_at): 2.513
Fold change LOC285628 (232504_at): 2.636
Fold change LOC440028 (1562606_a_at): 2.7
Fold change LOC729222 /// PPFIBP1 (214375_at): 2.426
Fold change LOC100128821 /// ZEB2 (235593_at): 2.365
Fold change LOC100132244 (229438_at): 2.299
Fold change LPAR1 (204036_at): 2.391
Fold change LPAR1 (204037_at): 2.425
Fold change LPAR1 (204038_s_at): 2.732
Fold change LPPR4 (213496_at): 2.406
Fold change LRCH2 (227688_at): 2.318
Fold change LRRK2 (229584_at): 2.314
Fold change MAGEA4 (214254_at): 2.513
Fold change MAP3K4 (216199_s_at): 2.654
Fold change MAP3K5 (203836_s_at): 2.356
Fold change MAP9 (220145_at): 2.4529
Fold change MASP1 (232224_at): 2.402
Fold change MASP1 (235770_at): 2.324
Fold change MESDC1 (223264_at): 2.618
Fold change MGST1 (239001_at): 2.428
Fold change MMD (203414_at): 2.313
Fold change MTHFD2L (220346_at): 2.597
Fold change MYO3B (1552578_a_at): 2.338
Fold change NAMPT (217738_at): 2.668
Fold change NEGR1 (1553194_at): 2.339
Fold change NEXN (226103_at): 2.323
Fold change NFKB2 (207535_s_at): 2.67
Fold change NFKBIZ (223217_s_at): 2.35
Fold change NOVA1 (205794_s_at): 2.682
Fold change NR4A1 (202340_x_at): 2.338
Fold change NRP2 (228699_at): 2.306
Fold change OLAH (222945_x_at): 2.586
Fold change PAPPA (201981_at): 2.727
Fold change PAPPA (224940_s_at): 2.664
Fold change PAPPA (224941_at): 2.737
Fold change PAPPA (228128_x_at): 2.482
Fold change PAPPA (1559400_s_at): 2.415
Fold change PCDH7 (210941_at): 2.333
Fold change PCSK1 (205825_at): 2.59
Fold change PDE4D (211840_s_at): 2.429
Fold change PEG10 (212092_at): 2.813
Fold change PF4 (206390_x_at): 2.652
Fold change PGM2L1 (229256_at): 2.478
Fold change PHLDA1 (217996_at): 2.515
Fold change PHTF1 (215285_s_at): 2.498
Fold change PI15 (229947_at): 2.619
Fold change PID1 (219093_at): 2.447
Fold change PID1 (237867_s_at): 2.743
Fold change PISD (202392_s_at): 2.402
Fold change PITPNC1 (238649_at): 2.621
Fold change PLAUR (211924_s_at): 2.357
Fold change PLEKHA3 (223370_at): 2.302
Fold change PTGER4 (204897_at): 2.525
Fold change PTGES (207388_s_at): 2.768
Fold change PTGES (210367_s_at): 2.519
Fold change PTGS1 (205128_x_at): 2.327
Fold change PTGS1 (215813_s_at): 2.306
Fold change PTHLH (206300_s_at): 2.505
Fold change PTHLH (211756_at): 2.599
Fold change PTPRG (204944_at): 2.299
Fold change QKI (228540_at): 2.426
Fold change RAB3B (205924_at): 2.634
Fold change RAB3B (227123_at): 2.514
Fold change RAB23 (220955_x_at): 2.644
Fold change RABGGTB (209180_at): 2.305
Fold change RABGGTB (213704_at): 2.423
Fold change RAI14 (202052_s_at): 2.503
Fold change RASSF8 (235996_at): 2.788
Fold change RGS3 (203823_at): 2.462
Fold change RGS5 (209070_s_at): 2.7
Fold change RGS12 (242079_at): 2.358
Fold change RHOQ (212122_at): 2.398
Fold change SEC24A (212902_at): 2.298
Fold change SEMA3A (206805_at): 2.505
Fold change SETDB2 (235339_at): 2.377
Fold change SGK1 (201739_at): 2.419
Fold change SH3RF3 (228461_at): 2.389
Fold change SHOX (207570_at): 2.312
Fold change SLC6A15 (232263_at): 2.365
Fold change SLC11A2 (237106_at): 2.533
Fold change SLC20A1 (230494_at): 2.526
Fold change SLC43A3 (210692_s_at): 2.457
Fold change SLFN11 (226743_at): 2.451
Fold change SLIT2 (209897_s_at): 2.499
Fold change SNHG12 (223774_at): 2.339
Fold change SOCS2 (203373_at): 2.46
Fold change SPON1 (209437_s_at): 2.36
Fold change SPON1 (213993_at): 2.499
Fold change SQSTM1 (213112_s_at): 2.447
Fold change ST3GAL1 (208322_s_at): 2.644
Fold change ST3GAL1 (225033_at): 2.64
Fold change STK17B (205214_at): 2.309
Fold change SULF1 (212344_at): 2.665
Fold change TAF1A (206613_s_at): 2.359
Fold change TAGLN (205547_s_at): 2.426
Fold change TBC1D1 (212350_at): 2.386
Fold change TBC1D1 (227945_at): 2.566
Fold change TGM2 (201042_at): 2.351
Fold change THBS1 (201108_s_at): 2.756
Fold change THBS1 (239336_at): 2.417
Fold change THRAP3 (242163_at): 2.62
Fold change TMEM38B (222735_at): 2.489
